# Measurements taken from BindingDB's records for patent US20260042753 (Merck Patent, 2026).
# pIC50: −log10 of the molar value.
# Tested on: Mast/stem cell growth factor receptor Kit [V654A]
# Test: c-Kit(V654A) Assay
# Description: c-Kit(V654A) (N-terminal GST-tagged, recombinant human c-Kit, amino acids 544-end containing the V654A mutation) is incubated with 8 mM MOPS pH 7.0, 0.2 mM EDTA, 250 μM GGMEDIYEFMGGKKK, 10 mM MgAcetate and [gamma-33P-ATP](specific activity approx. 500 cpm/pmol, concentration 200 μM). The reaction is initiated by the addition of the MgATP mix. After incubation for 40 minutes at room temperature, the reaction is stopped by the addition of 3% phosphoric acid solution. 10 μL of the reaction is then spotted onto a P30 filtermat and washed three times for 5 minutes in 75 mM phosphoric acid and once in methanol prior to drying and scintillation counting.
row,Compound,pIC50
1,"COCCOc1cc2[nH]nc(-c3cc(-c4ccc(C(=O)N5CC[C@@H]6CNC(=O)[C@@H]65)cc4)no3)c2cc1F (relative stereo) [US20260042753, Compound A89]",9.24
2,"COCCOc1cc2[nH]nc(-c3cc(-c4ccc(N5CC[C@H]6[C@H]5CCN6C)cc4)no3)c2cc1F (relative stereo) [US20260042753, Compound A126]",8.77
3,"COCCOc1cc2[nH]nc(-c3cc(-c4ccc(C(=O)N5C[C@@H]6CC(=O)N[C@@H]6C5)cc4)no3)c2cc1F (relative stereo) [US20260042753, Compound A203]",8.85
4,"COCCOc1cc2[nH]nc(-c3cc(-c4ccc(C(=O)N5C[C@H]6CCOC[C@H]6C5)cc4)no3)c2cc1F (relative stereo) [US20260042753, Compound A214]",9.36
5,"COCCOc1cc2[nH]nc(-c3cc(-c4ccc(C(=O)N5CC[C@H]6COC[C@H]6C5)cc4)no3)c2cc1F (relative stereo) [US20260042753, Compound A215]",9.12
6,"COCCNC(=O)c1ccc(-c2cc(-c3n[nH]c4cc(C(=O)NCCOC)ccc34)on2)cc1 [US20260042753, Compound A23]",8.00
7,"COCCOc1cc2[nH]nc(-c3cc(-c4ccc([SH2+]([O-])C=N)cc4)no3)c2cc1F [US20260042753, Compound A226]",8.70
